Measured values as given in US20230089715A1, “MASITINIB FOR THE TREATMENT OF A MULTIPLE SCLEROSIS PATIENT SUBPOPULATION” (AB SCIENCE, priority 2020, published 2023).

System: patients with progressive multiple sclerosis (PPMS or non-active SPMS)
Assay: Study AB07002: randomized, double-blind, placebo-controlled phase 3 study, overall EDSS change from baseline
Type: in vivo, human
Set-up: key to LSM EDSS, MAS (overall EDSS change from baseline): LS mean EDSS change from baseline; positive value = worsening
Settings: 4.5 mg/kg/day oral, 96 weeks
Experimental: An international, multicenter, randomized, double-blind, placebo-controlled phase 3 study was conducted with the objective to evaluate oral masitinib at a dose of 4.5 mg/kg/day as a treatment for progressive multiple sclerosis (progressive MS), as defined hereinabove. […] Eligible patients were treated for 96 weeks with masitinib at a dose of 4.5 mg/kg/day (mg per kilo body weight per day) or with placebo. Primary endpoint was overall EDSS change from baseline using a repeated analysis of covariance model (i.e., ANCOVA GEE model on all measurements from week 12 (W12) to week 96 (W96)). Results are expressed as least-squares means difference, illustrating the progression of EDSS score, that is to say the change over time in the EDSS score or in other words the difference between the EDSS score at baseline and the EDSS score after treatment with masitinib or with placebo (a positive value indicates a worsening of the patient). Treatment-effect is reported as between-group difference (ΔLSM, negative value indicates a beneficial effect of treatment with masitinib as compared to treatment with placebo). […] Patients suffering from a disease other than MS that would better explain their neurological clinical signs and symptoms and/or lesions observed with magnetic resonance imaging (“MRI lesions”) were excluded. Subpopulation analyses of primary endpoint data from study AB07002 assessed the impact of the clinical markers ‘time from onset’ with respect to baseline (i.e., date of treatment initiation), derived from the estimated date of first clinical MS symptom(s), or ‘time from diagnosis’ with respect to baseline (i.e., date of treatment initiation), on masitinib efficacy in patients with progressive MS (see Example 3). ‘Time from onset’ is derived from the date (year/month/day, year/month, or year) of first clinical symptom(s) with duration calculated from date of treatment initiation. The date of first symptom(s) is typically determined retrospectively from medical history, for example from medical records and patient/caregiver historical recall of MS related symptoms following a clinically definite diagnosis. Imputation of missing data can be handled using various methods, one example of which is the following approach: if the information regarding day is missing, the day is considered to be the last day of the month; if the day and month are missing, the day is considered to be the last day of June. ‘Time from diagnosis’ of progressive MS, is ideally based on a clinically definite diagnosis of progressive MS as determined by a MS specialist neurologist. In practice it is derived from the date (year/month/day, year/month, or year) of first clinically definite diagnosis of progressive MS, i.e., PPMS or non-active SPMS, with duration calculated from date of treatment initiation. At the time of MS diagnosis, a provisional disease course should be specified (relapsing-remitting, primary progressive, or secondary progressive) and whether the course is active or not (non-active) and progressive or not based on the previous year's history. The phenotype should be periodically re-evaluated based on accumulated information. Comparison of subpopulation analyses with respect to the corresponding full analysis dataset (see Table 4) is reported as relative difference in ΔEDSS (R %). A large positive R % value indicates a subpopulation that receives greater benefit from masitinib treatment, while a negative R % value indicates a diminished treatment-effect or lack of discernable treatment-effect in the subpopulation.

[1] = PPMS, T(diag) > 2 Y and T(onset) > 5 Y
[2] = PPMS, complement T(diag) ≤ 2 Y or T(onset) ≤ 5 Y
[3] = Progressive MS, T(diag) > 2 Y and T(onset) > 5 Y

Compound: Cc1ccc(NC(=O)c2ccc(CN3CCN(C)CC3)cc2)cc1Nc1nc(-c2cccnc2)cs1 [masitinib, 4-(4-methylpiperazin-1-ylmethyl)-N-[4-methyl-3-(4-pyridin-3ylthiazol-2-ylamino)phenyl]benzamide]
- LSM EDSS, MAS (overall EDSS change from baseline) (PPMS, T(diag) > 1 Y): −0.004
- R % (relative difference in ΔEDSS with respect to full analysis dataset) (PPMS, T(diag) > 1 Y): 31%
- ΔEDSS (between group difference, treatment-effect vs placebo) (PPMS, T(diag) > 1 Y): −0.174
- LSM EDSS, MAS (overall EDSS change from baseline) [1]: −0.076
- ΔEDSS (between group difference, treatment-effect vs placebo) [1]: −0.283
- R % (relative difference in ΔEDSS with respect to full analysis dataset) (PPMS, T(diag) > 2 Y and T(onset) > 5 Y, 4.5 mg/kg/day): 113%
- LSM EDSS, MAS (overall EDSS change from baseline) (PPMS, T(diag) > 2 Y): −0.070
- ΔEDSS (between group difference, treatment-effect vs placebo) (PPMS, T(diag) > 2 Y): −0.246
- R % (relative difference in ΔEDSS with respect to full analysis dataset) (PPMS, T(diag) > 2 Y, 4.5 mg/kg/day): 85%
- LSM EDSS, MAS (overall EDSS change from baseline) (PPMS, T(diag) > 3 Y): −0.099
- ΔEDSS (between group difference, treatment-effect vs placebo) (PPMS, T(diag) > 3 Y): −0.211
- R % (relative difference in ΔEDSS with respect to full analysis dataset) (PPMS, T(diag) > 3 Y, 4.5 mg/kg/day): 59%
- LSM EDSS, MAS (overall EDSS change from baseline) (PPMS, T(diag) > 4 Y): 0.097
- R % (relative difference in ΔEDSS with respect to full analysis dataset) (PPMS, T(diag) > 4 Y): 25%
- ΔEDSS (between group difference, treatment-effect vs placebo) (PPMS, T(diag) > 4 Y): −0.166
- LSM EDSS, MAS (overall EDSS change from baseline) (PPMS, T(diag) ≤ 1 Y): −0.097
- ΔEDSS (between group difference, treatment-effect vs placebo) (PPMS, T(diag) ≤ 1 Y): 0.137
- LSM EDSS, MAS (overall EDSS change from baseline) (PPMS, T(diag) ≤ 2 Y): 0.190
- LSM EDSS, MAS (overall EDSS change from baseline) (PPMS, T(diag) ≤ 3 Y): 0.070
- ΔEDSS (between group difference, treatment-effect vs placebo) (PPMS, T(diag) ≤ 3 Y): 0.009
- LSM EDSS, MAS (overall EDSS change from baseline) (PPMS, T(diag) ≤ 4 Y): 0.099
- ΔEDSS (between group difference, treatment-effect vs placebo) (PPMS, T(diag) ≤ 4 Y): −0.089
- LSM EDSS, MAS (overall EDSS change from baseline) (PPMS, T(onset) > 1 Y): 0.040
- R % (relative difference in ΔEDSS with respect to full analysis dataset) (PPMS, T(onset) > 1 Y): −6%
- ΔEDSS (between group difference, treatment-effect vs placebo) (PPMS, T(onset) > 1 Y): −0.125
- LSM EDSS, MAS (overall EDSS change from baseline) (PPMS, T(onset) > 2 Y): 0.026
- R % (relative difference in ΔEDSS with respect to full analysis dataset) (PPMS, T(onset) > 2 Y): 5%
- ΔEDSS (between group difference, treatment-effect vs placebo) (PPMS, T(onset) > 2 Y): −0.139
- LSM EDSS, MAS (overall EDSS change from baseline) (PPMS, T(onset) > 3 Y): 0.021
- R % (relative difference in ΔEDSS with respect to full analysis dataset) (PPMS, T(onset) > 3 Y): 31%
- ΔEDSS (between group difference, treatment-effect vs placebo) (PPMS, T(onset) > 3 Y): −0.174
- LSM EDSS, MAS (overall EDSS change from baseline) (PPMS, T(onset) > 4 Y): 0.028
- R % (relative difference in ΔEDSS with respect to full analysis dataset) (PPMS, T(onset) > 4 Y): 22%
- ΔEDSS (between group difference, treatment-effect vs placebo) (PPMS, T(onset) > 4 Y): −0.162
- LSM EDSS, MAS (overall EDSS change from baseline) (PPMS, T(onset) > 5 Y): 0.029
- ΔEDSS (between group difference, treatment-effect vs placebo) (PPMS, T(onset) > 5 Y): −0.214
- R % (relative difference in ΔEDSS with respect to full analysis dataset) (PPMS, T(onset) > 5 Y, 4.5 mg/kg/day): 61%
- LSM EDSS, MAS (overall EDSS change from baseline) (PPMS, T(onset) ≤ 3 Y): 0.111
- ΔEDSS (between group difference, treatment-effect vs placebo) (PPMS, T(onset) ≤ 3 Y): 0.349
- LSM EDSS, MAS (overall EDSS change from baseline) (PPMS, T(onset) ≤ 4 Y): −0.082
- ΔEDSS (between group difference, treatment-effect vs placebo) (PPMS, T(onset) ≤ 4 Y): 0.051
- LSM EDSS, MAS (overall EDSS change from baseline) (PPMS, T(onset) ≤ 5 Y): 0.314
- LSM EDSS, MAS (overall EDSS change from baseline) [2]: 0.180
- ΔEDSS (between group difference, treatment-effect vs placebo) [2]: 0.118
- LSM EDSS, MAS (overall EDSS change from baseline) (PPMS, full analysis dataset): 0.030
- ΔEDSS (between group difference, treatment-effect vs placebo) (PPMS, full analysis dataset, 4.5 mg/kg/day): −0.133
- ΔEDSS (between group difference, treatment-effect vs placebo) (PPMS, full analysis dataset, listed as Masitinib, 4.5 mg/kg/day): non-significant trend
- LSM EDSS, MAS (overall EDSS change from baseline) (Progressive MS, T(diag) > 1 Y): −0.012
- R % (relative difference in ΔEDSS with respect to full analysis dataset) (Progressive MS, T(diag) > 1 Y): 10%
- ΔEDSS (between group difference, treatment-effect vs placebo) (Progressive MS, T(diag) > 1 Y): −0.109
- LSM EDSS, MAS (overall EDSS change from baseline) [3]: −0.057
- ΔEDSS (between group difference, treatment-effect vs placebo) [3]: −0.162
- R % (relative difference in ΔEDSS with respect to full analysis dataset) (Progressive MS, T(diag) > 2 Y and T(onset) > 5 Y, 4.5 mg/kg/day): 64%
- LSM EDSS, MAS (overall EDSS change from baseline) (Progressive MS, T(diag) > 2 Y): −0.029
- ΔEDSS (between group difference, treatment-effect vs placebo) (Progressive MS, T(diag) > 2 Y): −0.133
- R % (relative difference in ΔEDSS with respect to full analysis dataset) (Progressive MS, T(diag) > 2 Y, 4.5 mg/kg/day): 34%
- LSM EDSS, MAS (overall EDSS change from baseline) (Progressive MS, T(diag) > 3 Y): −0.068
- R % (relative difference in ΔEDSS with respect to full analysis dataset) (Progressive MS, T(diag) > 3 Y): 39%
- ΔEDSS (between group difference, treatment-effect vs placebo) (Progressive MS, T(diag) > 3 Y): −0.138
- LSM EDSS, MAS (overall EDSS change from baseline) (Progressive MS, T(diag) > 4 Y): −0.053
- R % (relative difference in ΔEDSS with respect to full analysis dataset) (Progressive MS, T(diag) > 4 Y): 48%
- ΔEDSS (between group difference, treatment-effect vs placebo) (Progressive MS, T(diag) > 4 Y): −0.147
- LSM EDSS, MAS (overall EDSS change from baseline) (Progressive MS, T(diag) ≤ 1 Y): −0.099
